Reference: patent publication US4865991A, “Methods for partitioning of organic flavor compounds” (priority 1987, dated 1989)
Where two headings read alike, the source gives them in different places.

Experiments:
[1] = HPLC determination of partition coefficients in acetonitrile phase systems
Description: In these tests, known organic flavor volatile compounds were added to 2 ml aliquots of 50:50 acetonitrile:water, 22° C., in 4 ml HPLC vials, mixed thoroughly and capped with polytetrafluoroethylene septum caps. […] The samples were injected (20 uL) into a continuous HPLC apparatus. […] The HPLC apparatus was a Waters WISP model 710B sample injector, 6000A pump, and 481 UV detector set at 210 nm (Waters Associates, Milford, MA). A Radiomatic Flo-One Beta unit was used for peak integration (Radiomatic Instruments, Inc., Tampa FL). An Alltech adsorbosphere C18 column, 5 micron, 250 mm×4.6 mm was used (Alltech Associates, Deerfield, IL) to achieve component separation in accordance with conventional HPLC processing. The mobile phase had the following composition: 45% acetonitrile, 55% water, 0.2% KH2 PO4, pH 3.0. The flow rate was 1.0 ml/minute. The vials were then placed in a freezer (-20° C.) for one hour. 250 uL of the resulting organic and aqueous phases were then placed in a limited volume insert vial, the sample injected and peak integrations acquired. The partition coefficient, P, was calculated by dividing the organic phase by the aqueous phase integration values.
To determine the time period appropriate for complete partitioning, four sulfur volatiles and 1-methionine were treated as above, except that samples were taken at different times up to 60 minutes FIGS. 2a, 2b and 3).

[2] = Binary acetonitrile/water cold phase extraction of caffeine from cola beverage; assay type: physicochemical; details: cola plus acetonitrile, -20° C. for 1 hour
Description: […]. The sample was shaken for 20 seconds and was chilled to -20° C. for 1 hour. 0.3 ml of the organic layer was then placed in an HPLC sampling vial. The HPLC system used was: a phenyl reversed phase column (Alltech Associates, Deerfield, Ill.) 250×4.6 mm, 5 micron. 25% acetonitrile, 75% water 0.2% w/v KH2 PO4, pH 3.0 mobile phase, 1.5 ml/min. flow rate 20 uL injection by the autosampler. UV detection at 210 nm.

[3] = Acetonitrile/water 1:1, 1 hr. at -20° C., organic phase divided by aqueous phase integration values
[4] = Acetonitrile/water/chloroform 5:5:1, 22° C., organic phase divided by aqueous phase integration values

Row | SMILES | Partition Coefficient Ternary [1] | Partition Coefficient Binary ([1]; 60 min) | Partition Coefficient Binary [1, 3] | Partition Coefficient Ternary [1, 4] | extraction into the organic phase [2]
1 | O=C1O[C@H]([C@@H](O)CO)[C@@H](O)[C@@H]1O [1-galactono-1,4-lactone] | 0.2 | 0.2 | – | – | –
2 | CSCC[C@H](N)C(=O)O [1-methionine] | – | – | 0.03 | 0.2 | –
3 | N[C@@H](Cc1ccccc1)C(=O)O [1-phenylalanine] | – | – | 0.1 | 0.3 | –
4 | OCCc1ccccc1 [2-phenyl ethanol] | 2.3 | 3.3 | – | – | –
5 | Cn1c(=O)c2c(ncn2C)n(C)c1=O [Caffeine] | – | – | – | – | selectively extracted into the organic phase
6 | CCCCCCCC(=O)O [Caprylic acid] | – | – | 20.8 | 20.6 | –
7 | CSC [Dimethyl sulfide] | 6.6 | 5.2 | – | – | –
8 | CCCC(=O)OCC [Ethyl Butyrate] | 17.6 | 14.3 | – | – | –
9 | CCCCC(=O)OCC [Ethyl Valerate] | – | – | 25.9 | 25.6 | –
10 | S [Hydrogen sulfide] | – | – | 4.6 | 5.2 | –
